IC50 data for 22 molecules are collected here from patent US20260226068A1, “IMIDAZOTRIAZINE IL-17A MODULATORS AND USES THEREOF” (DICE ALPHA, INC., priority 2023, published 2026).

Structures are written as SMILES. pIC50: −log10 of the molar value.

One assay has as its target T1, IL-17A/A (Homo sapiens, UniProt Q16552).
T1 construct: purchased Genscript Z03228
T1 sequence (Q16552 24-155): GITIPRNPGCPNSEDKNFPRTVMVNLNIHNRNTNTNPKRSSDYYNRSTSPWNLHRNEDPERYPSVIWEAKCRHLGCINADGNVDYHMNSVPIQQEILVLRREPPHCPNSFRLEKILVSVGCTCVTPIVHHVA
Description: IL-17A/A HEK-Blue cell assay (SEAP reporter). The assay is classed as cell-based. Conditions: HEK-Blue IL-17A reporter cells, IL17A/A 5 ng/mL, 20 hours, SEAP read at A630; read-out: HEK-Blue IL17AA (IC50 for IL-17A/A inhibition).

A further assay deals with T2, IL-17A/F (Homo sapiens, UniProt Q16552+Q96PD4).
T2 construct: purchased R&D Systems
T2 sequence (Q16552 24-155): T1 sequence (Q16552 24-155)
T2 sequence (Q96PD4 31-163): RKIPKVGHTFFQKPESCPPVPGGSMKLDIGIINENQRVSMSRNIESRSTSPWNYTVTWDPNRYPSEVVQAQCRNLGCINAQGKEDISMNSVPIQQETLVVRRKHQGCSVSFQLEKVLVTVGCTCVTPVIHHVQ
Description: IL-17A/F HEK-Blue cell assay (SEAP reporter). The assay is classed as cell-based. Particulars: HEK-Blue IL-17A reporter cells, IL17A/F 5 ng/mL, 20 hours, SEAP read at A630; read-out: HEK-Blue IL17AF (IC50 for IL-17A/F inhibition).

For `CCn1nccc1C(=O)N[C@H](c1cn2nc(C[C@H]3C[C@@H](C(F)(F)F)CNC3=O)c(C3CCOC4(C3)CN(C(=O)OC(C)(C)C)C4)nc2n1)C1CCC(F)(F)CC1` (stereo partly drawn) [Compound 240, tert-butyl 8-(6-((S)-(4,4-difluorocyclohexyl)(1-ethyl-1H-pyrazole-5-carboxamido)methyl)-2-(((3R,5R)-2-oxo-5-(trifluoromethyl)piperidin-3-yl)methyl)imidazo[1,2-b][1,2,4]triazin-3-yl)-5-oxa-2-azaspiro[3.5]nonane-2-carboxylate], the pIC50 on IL-17A/A and on IL-17A/F was 6.00 to 7.00 in each case.
For the molecule `CCn1nccc1C(=O)N[C@H](c1cn2nc(CC3C[C@@H](C(F)(F)F)CNC3=O)c(N3C[C@@H]4C[C@H]3CO4)nc2n1)C1CCC(F)(F)CC1` (single isomer, unassigned) [Compound 99], the pIC50 is above 7.00 on IL-17A/A and below 6.00 on IL-17A/F.
On to `CCn1nccc1C(=O)N[C@H](c1cn2nc(C[C@H]3C[C@@H](C(F)(F)F)CNC3=O)c(CN3CCC4(CC4)C3)nc2n1)C1CCC(F)(F)CC1` [Compound 344, N—((S)-(3-((5-azaspiro[2.4]heptan-5-yl)methyl)-2-(((3R,5R)-2-oxo-5-(trifluoromethyl)piperidin-3-yl)methyl)imidazo[1,2-b][1,2,4]triazin-6-yl)(4,4-difluorocyclohexyl)methyl)-1-ethyl-1H-pyrazole-5-carboxamide], for which the pIC50 on IL-17A/A is 6.00 to 7.00; at IL-17A/F, below 6.00.
For the molecule `CCn1nccc1C(=O)N[C@H](c1cn2nc(C[C@@H]3C[C@H](C)CNC3=O)c(C3CCOCC3)nc2n1)C1CCC(F)(F)CC1` [Compound 220], the pIC50 is above 7.00 on IL-17A/A and 6.00 to 7.00 on IL-17A/F.
For `CCn1nccc1C(=O)N[C@H](c1cn2nc(C[C@H]3C[C@@H](C(F)(F)F)CNC3=O)c(N3CCN4CCCC[C@@H]4C3)nc2n1)C1CCC(F)(F)CC1` [Compound 367, N—((S)-(4,4-difluorocyclohexyl)(3-((R)-octahydro-2H-pyrido[1,2-a]pyrazin-2-yl)-2-(((3R,5R)-2-oxo-5-(trifluoromethyl)piperidin-3-yl)methyl)imidazo[1,2-b][1,2,4]triazin-6-yl)methyl)-1-ethyl-1H-pyrazole-5-carboxamide], the pIC50 at IL-17A/A and on IL-17A/F was above 7.00 in each case.
For `CCn1nccc1C(=O)N[C@H](c1cn2nc(C[C@H]3C[C@@H](C(F)(F)F)CNC3=O)c(CN3CC4(C3)CC(F)(F)C4)nc2n1)C1CCC(F)(F)CC1` [Compound 340, N—((S)-(3-((6,6-difluoro-2-azaspiro[3.3]heptan-2-yl)methyl)-2-(((3R,5R)-2-oxo-5-(trifluoromethyl)piperidin-3-yl)methyl)imidazo[1,2-b][1,2,4]triazin-6-yl)(4,4-difluorocyclohexyl)methyl)-1-ethyl-1H-pyrazole-5-carboxamide], the pIC50 on IL-17A/A was above 7.00; at IL-17A/F, below 6.00.
For the molecule `CCn1nccc1C(=O)N[C@H](c1cn2nc(C[C@H]3C[C@@H](C(F)(F)F)CNC3=O)c(C3(C)CCOCC3)nc2n1)C1CCC(F)(F)CC1` [Compound 164, N-((1S)-(4,4-difluorocyclohexyl)(3-(4-methyltetrahydro-2H-pyran-4-yl)-2-(((3R,5R)-2-oxo-5-(trifluoromethyl)piperidin-3-yl)methyl)imidazo[1,2-b][1,2,4]triazin-6-yl)methyl)-1-ethyl-1H-pyrazole-5-carboxamide], the figures for the pIC50 on IL-17A/A and on IL-17A/F were above 7.00 and 6.00 to 7.00, respectively.
In the case of `CCc1nonc1C(=O)N[C@H](c1cn2nc(C[C@H]3C[C@@H](C(F)(F)F)CNC3=O)c(N3CCN(C)CC3)nc2n1)C1CCC(F)(F)CC1` [Compound 312, N—((S)-(4,4-difluorocyclohexyl)(3-(4-methylpiperazin-1-yl)-2-(((3R,5R)-2-oxo-5-(trifluoromethyl)piperidin-3-yl)methyl)imidazo[1,2-b][1,2,4]triazin-6-yl)methyl)-4-ethyl-1,2,5-oxadiazole-3-carboxamide], the pIC50 at IL-17A/A is above 7.00; at IL-17A/F, below 6.00.
As for `Cn1nccc1C(=O)N[C@H](c1cn2nc(C[C@H]3C[C@@H](C(F)(F)F)CNC3=O)c(C3(C)CCOCC3)nc2n1)C1CCC(F)(F)CC1` [Compound 280, N—((S)-(4,4-difluorocyclohexyl)(3-(4-methyltetrahydro-2H-pyran-4-yl)-2-(((3R,5R)-2-oxo-5-(trifluoromethyl)piperidin-3-yl)methyl)imidazo[1,2-b][1,2,4]triazin-6-yl)methyl)-1-methyl-1H-pyrazole-5-carboxamide], the pIC50 on IL-17A/A is above 7.00; at IL-17A/F it was below 6.00.
For `CCn1nccc1C(=O)N[C@H](c1cn2nc(CC3C[C@@H](C(F)(F)F)CNC3=O)c(C3CCOCC3)nc2n1)C1CCC(F)(F)CC1` (stereo in doubt) [Compound 89, N-((1S)-(4,4-difluorocyclohexyl)(2-(((3R,5R)-2-oxo-5-(trifluoromethyl)piperidin-3-yl)methyl)-3-(tetrahydro-2H-pyran-4-yl)imidazo[1,2-b][1,2,4]triazin-6-yl)methyl)-1-ethyl-1H-pyrazole-5-carboxamide], the results for the pIC50 at IL-17A/A and on IL-17A/F were above 7.00 and below 6.00, respectively.
With `CCn1nccc1C(=O)N[C@H](c1cn2nc(C[C@H]3C[C@@H](C(F)(F)F)CNC3=O)c(C[C@H]3CCOC3)nc2n1)C1CCC(F)(F)CC1` (single isomer, unassigned) [Compound 225], the pIC50 on IL-17A/A is above 7.00; at IL-17A/F, 6.00 to 7.00.
For `CCn1nccc1C(=O)N[C@H](c1cn2nc(C[C@H]3C[C@@H](C(F)(F)F)CNC3=O)c(N3CCN(C)[C@H](C4CC4)C3)nc2n1)C1CCC(F)(F)CC1` (single isomer, unassigned) [Compound 431], the pIC50 was above 7.00 on IL-17A/A and 6.00 to 7.00 on IL-17A/F.
For `CCn1nccc1C(=O)N[C@H](c1cn2nc(C[C@H]3C(=O)NC[C@H]4C[C@H]43)c(C3CCOCC3)nc2n1)C1CCC(F)(F)CC1` [Compound 429], in that order: 6.00 to 7.00 and below 6.00.
Regarding `CCn1nccc1C(=O)N[C@H](c1cn2nc(C[C@H]3C[C@H](C(F)(F)F)CNC3=O)c(C3CCOCC3)nc2n1)C1CCC(F)(F)CC1` [Compound 140, N-((1S)-(4,4-difluorocyclohexyl)(2-(((3R,5S)-2-oxo-5-(trifluoromethyl)piperidin-3-yl)methyl)-3-(tetrahydro-2H-pyran-4-yl)imidazo[1,2-b][1,2,4]triazin-6-yl)methyl)-1-ethyl-1H-pyrazole-5-carboxamide], the pIC50 is above 7.00 on IL-17A/A and 6.00 to 7.00 at IL-17A/F.
Regarding `CCn1nccc1C(=O)N[C@H](c1cn2nc(C[C@H]3C[C@@H](C(F)(F)F)CNC3=O)c([C@@H]3CCOC3)nc2n1)C(C1CC1)C1CC1` (single isomer, unassigned) [Compound 322], the pIC50 on IL-17A/A is above 7.00; on IL-17A/F it was 6.00 to 7.00.
`C[C@H]1CC[C@H]([C@H](NC(=O)C2(F)CC2)c2cn3nc(CC4C[C@@H](C(F)(F)F)CNC4=O)c(N4CCOCC4)nc3n2)CC1` (single isomer, unassigned) [Compound 118]: the pIC50 is 6.00 to 7.00 at IL-17A/A and below 6.00 on IL-17A/F.
Consider `CCn1nccc1C(=O)N[C@H](c1cn2nc(C[C@H]3C[C@@H](C(F)(F)F)CNC3=O)c(CCOC)nc2n1)C1CCC(F)(F)CC1` [Compound 276, N—((S)-(4,4-difluorocyclohexyl)(3-(2-methoxyethyl)-2-(((3R,5R)-2-oxo-5-(trifluoromethyl)piperidin-3-yl)methyl)imidazo[1,2-b][1,2,4]triazin-6-yl)methyl)-1-ethyl-1H-pyrazole-5-carboxamide], for which the pIC50 at IL-17A/A is above 7.00; at IL-17A/F, 6.00 to 7.00.
Take `CCn1nccc1C(=O)N[C@H](c1cn2nc(C[C@H]3C[C@@H](C(F)(F)F)CNC3=O)c(CN3CCOC[C@H]3C)nc2n1)C1CCC(F)(F)CC1` (single isomer, unassigned) [Compound 231]: the pIC50 is above 7.00 on IL-17A/A and 6.00 to 7.00 at IL-17A/F.
On to `O=C(N[C@H](c1cn2nc(CC3C[C@H](C(F)(F)F)CNC3=O)cnc2n1)C1CCC(F)(F)CC1)c1nonc1C1CC1` (stereo partly drawn) [Compound 16, 4-cyclopropyl-N—((S)-(4,4-difluorocyclohexyl)(2-(((5S)-2-oxo-5-(trifluoromethyl)piperidin-3-yl)methyl)imidazo[1,2-b][1,2,4]triazin-6-yl)methyl)-1,2,5-oxadiazole-3-carboxamide], for which the results for the pIC50 at IL-17A/A and at IL-17A/F were 6.00 to 7.00 and below 6.00, respectively.
Turning to `O=C(N[C@H](c1cn2nc(C[C@H]3C[C@@H](C(F)(F)F)CNC3=O)c(C3CCOCC3)nc2n1)C1CCC(F)(F)CC1)c1ccnn1C(F)(F)F` [Compound 184, N-((1S)-(4,4-difluorocyclohexyl)(2-(((3R,5R)-2-oxo-5-(trifluoromethyl)piperidin-3-yl)methyl)-3-(tetrahydro-2H-pyran-4-yl)imidazo[1,2-b][1,2,4]triazin-6-yl)methyl)-1-(trifluoromethyl)-1H-pyrazole-5-carboxamide], the pIC50 was above 7.00 at IL-17A/A and below 6.00 at IL-17A/F.
As to `CCn1nccc1C(=O)N[C@H](c1cn2nc(CC3C[C@@H](C(F)(F)F)CNC3=O)cnc2n1)C1CCC(F)(F)CC1` (single isomer, unassigned) [Compound 5], the results for the pIC50 on IL-17A/A and at IL-17A/F were 6.00 to 7.00 and below 6.00, respectively.
`CCn1nccc1C(=O)N[C@H](c1cn2nc(CC3C[C@@H](C(F)(F)F)CNC3=O)c(N3CCOCC3)nc2n1)C1CCC(F)(F)CC1` (single isomer, unassigned) [Compound 18]: the pIC50 was above 7.00 at IL-17A/A and below 6.00 on IL-17A/F.
